Entries after “also recorded” stand apart in the source; their conditions may differ. Where two headings read alike, the source gives them in different places.
Tests used:
[1] = Acute toxicity in rats (intragastral, 7 days observation, LD50 by Weber's probit analysis); format: in vivo, rat (SIV 50 strain); details: rat, in vivo, po
Procedure: (§1) The experimental animals used were male and female rats of the SIV 50 strain with a body weight of 115 to 170 g and of 100 to 160 g, respectively. All the animals were fasted for 20 hours before the commencement of the experiments, water was available ad libitum. There were 10 animals in each dosage group. The test substances were administered intragastrally with a metal probe in the form of 1% tragacanth slurry suspensions (4 ml/100 g of body weight).
(§2) The animals were observed over a period of time of 7 days. For the calculation of the LD50 with the related confidence limits, use was made of Weber's probit analysis (see Grundriss der Biologischen Statistik, pub. Gustav Fischer Verlag, Jena, 1-72).

awake rats (diuresis) = test: Diuresis in awake rats (urine volume within the first 4 hours); format: in vivo, rat (SIV 50 strain); details: intragastral, urine volume in 4 hours, FIG. 2
Procedure: The experimental animals used were male rats of the SIV 50 strain which were kept under constant conditions. Feed was removed 36 hours before the commencement of the experiments but water was available until just before the commencement of the experiment. The test substances were administered intragastrally as suspensions in 1% tragacanth slurry which has been prepared with a 0.2% sodium chloride solution (1 ml/100 g body weight). In addition, the animals were given intragastrally 4 ml/100 g body weight a 0.2% sodium chloride solution. The animals were kept individually in metabolic cages in order to determine the urine volumes within the first 4 hours.

[2] = tested on: rats with renovascular high blood pressure; test: Renovascular high blood pressure in rats; format: in vivo, rat (SIV 50 strain); set-up: average blood pressure: unit: mmHg
Excerpt: The antihypertensive properties were investigated in rats which, after experimental ligature of the kidney blood flow, had developed a renovascular high blood pressure. The experimental animals used were male rats of the SIV 50 strain which, under ether narcosis, had been monolaterally nephrectomised and the contralateral renal arteries of which had been stenosed 2 days later with the help of silver clips. After 6 to 8 weeks, these animals developed a high blood pressure. The blood pressure measurement took place bloodlessly on the root of the tail of the animals. The test substances were administered intragastrally once daily as tragacanth slurry suspensions for 33 days.

[3] = cited from earlier work
mice = details: male mice; literature (Meng-Loew, Diuretika, 1974); cited from earlier work
[4] = tested on: male and female rats of the SIV 50 strain; test: Acute toxicity in rats (intragastral, 7 days observation, LD50 by Weber's probit analysis); format: in vivo, rat (SIV 50 strain); details: rat
Procedure: as §1, §2

[5] = Racemization of (+)-ozolinone in 0.1N hydrochloric acid and in chloroform; format: physicochemical; details: read-out: degree of racemization
Procedure: Esterification of the known, optically-active (+)-(3-methyl-4-oxo-5N-piperidinothiazolidin-2-ylidene)-acetic acid [(+)-ozolinone (see Federal Republic of Germany Patent Specification No. 26 58 858)] also cannot be carried out with agents which can be used on a large scale because it racemizes under the esterification conditions. Thus, for example, (+)-ozolinone racemizes to an extent of 15% in 0.1N hydrochloric acid in less than 1 hour. Even in chloroform, in the same period of time, the degree of racemization which occurs is about 10%.

[6] = 100 mg/kg i.g., 2nd day after treatment
[7] = 100 mg/kg i.g., 20th day of treatment
[8] = 100 mg/kg i.g., before treatment
[9] = 200 mg/kg i.g., 8th day after treatment
[10] = 200 mg/kg i.g., 10th day of treatment
[11] = 200 mg/kg i.g., 17th day of treatment
[12] = 200 mg/kg i.g., 33rd day of treatment
[13] = 200 mg/kg i.g., before treatment

Row | Structure (SMILES) | LD50 at 168 h ([1]; female rat) | LD50 at 168 h ([1]; male rat) | diuretic action (in words) (awake rats (diuresis)) | average blood pressure [2, 6] | average blood pressure [2, 7] | average blood pressure [2, 8] | average blood pressure [2, 9] | average blood pressure [2, 10] | average blood pressure [2, 11] | average blood pressure [2, 12] | average blood pressure [2, 13] | LD50 (mice) | also measured
1 | CCOC(=O)C=C1SC(N2CCCCC2)C(=O)N1C (racemic) [Compound A, ethyl (±)-(3-methyl-4-oxo-5N-piperidinothiazolidin-2-ylidene)acetate] | 10200 mg/kg | 11000 mg/kg | diuretically effective in a dosage dependent manner | 195 | 175 | 197 | 182 | 171 | 182 | 174 | 187 |  | antihypertensive activity (in words) ([3]; published): good antihypertensive activity; diuretic / saluretic activity (in words) ([3]; published): strong diuretic and saluretic properties; antihypertensive effect at subdiuretic doses (in words) ([3]; subdiuretic doses, DE 25 32 180): even at subdiuretic doses, an antihypertensive effect occurs
2 | NS(=O)(=O)c1cc2c(cc1Cl)NCNS2(=O)=O [Compound D, 6-chloro-3,4-dihydro-2H-1,2,4-benzothiadiazine-7-sulphonamide 1,1-dioxide] |  |  |  |  |  |  |  |  |  |  |  | 3,080 mg/kg | 
3 | C=C(CC)C(=O)c1ccc(OCC(=O)O)c(Cl)c1Cl [Compound F, [2,3-dichloro-4-(2-methylene-1-oxobutyl)phenoxy]acetic acid] |  |  |  |  |  |  |  |  |  |  |  | 600 mg/kg | 
4 | CCOC(=O)C=C1SC(N2CCCCC2)C(=O)N1C (single isomer, unassigned) [Compound B, ethyl (+)-(3-methyl-4-oxo-5N-piperidinothiazolidin-2-ylidene)acetate] | 4230 mg/kg | 3650 mg/kg | diuretically inactive; also recorded: does not possess any diuretic action at all | 190 | 164 | 189 | 182 | 159 | 150 | 156 | 185 |  | LD50 at 168 h ([1]; bound stated): > 2000 mg/kg; acute toxicity (in words) [4]: more toxic than Compound A; also recorded: extraordinarily nontoxic; antihypertensive action (in words) ([2]; rats with renovascular high blood pressure): possesses the strongest antihypertensive action and that this effect is dosage dependent
5 | CCOC(=O)C=C1SC(N2CCCCC2)C(=O)N1C (single isomer, unassigned) [Compound C, ethyl (-)-(3-methyl-4-oxo-5N-piperidinothiazolidin-2-ylidene)acetate] |  |  | diuretically effective in a dosage dependent manner | 201 | 176 | 191 | 190 | 178 | 176 | 164 | 192 |  | 
6 | CN1C(=O)C(N2CCCCC2)SC1=CC(=O)O (single isomer, unassigned; (+)) [(+)-ozolinone, (+)-(3-methyl-4-oxo-5N-piperidinothiazolidin-2-ylidene)-acetic acid] |  |  |  |  |  |  |  |  |  |  |  |  | degraded at 1 h ([5]; 0.1N hydrochloric acid, less than 1 hour): 15%; degraded at 1 h ([5]; chloroform, same period of time (less than 1 hour)): ~10%
